The subject of test [1] is mice with HNE induced emphysema. In words: HNE induced emphysema, intratracheal delivery, lung histology and mean linear intercept after four weeks. It is filed as in vivo. The procedure: A total of 42 animals were used in this study. Anesthesized mice received 0.1 ml of solution delivered by intratracheal instillation as described above in Example 4. Animals were divided into the following treatment groups: four animals received saline only; ten animals received HNE only; four animals received the Zeneca inhibitor (target 2) only; eight animals received HNE mixed with the Zeneca inhibitor (target 2); eight animals received Zeneca inhibitor linked to a lung surfactant peptide (target C) only; and eight animals received HNE mixed with Zeneca inhibitor linked to a lung surfactant peptide (target C). Animals receiving HNE were instilled with 40 micrograms HNE. Target 2 (Zeneca inhibitor) was administered in a 70-fold molar excess relative to HNE and Target C (Zeneca inhibitor linked to a lung surfactant peptide) was administered in a 100 fold molar excess relative to HNE as described in Example 4.
All animals were observed a four week period prior to sacrifice following IRB approved protocols and the lungs from each animal were removed for sectioning. The Hilar and central region was sectioned from the left lung and the caudal region was sectioned from the right lung of each animal. Lung sections were scored using blind-scoring by an expert as “E” for emphysema and “N” for no emphysema.
The distance between adjacent alveolar walls was also measured to quantitate the degree of lung destruction for each treatment group. Lung sections obtained from each animal were analyzed under a microscope (which is connected to a computer) and lines were drawn over the lung sections between adjacent alveolar walls. The distance along the lines was calculated to determine the average distance or mean linear intercept (MLI) between adjacent alveolar walls. An increase in the average distance between adjacent alveolar walls corresponds to an increase in lung destruction.

Test [2] has as its system mice exposed to HNE. Nature of the test: Bronchoalveolar lavage of the lungs following HNE exposure (lung blood cell level). It is filed as in vivo. How it is done:
A total of 14 animals were used in this study. Anesthetized mice received 0.1 ml of solution delivered by a blunt tip catheter to the opening of the trachea and the animals allowed to aspirate the solution into their lungs (this method is also referred to as intratracheal instillation). All animals were exposed to the treatment for 2 hours and re-anesthetized. Bronchoalveolar lavage of the lungs was performed as described below. […] Target 2 (a potent HNE inhibitor developed by Zeneca in the early 1990s) when given with the HNE, reduced the average blood level in the lungs by 34% to 0.035 grams. Target C (the Zeneca molecule covalently attached to the N-terminus of the first 25 residues of the human surfactant B peptide) when given with the HNE reduced the average blood level in the lungs by 87% to 0.007 grams.
A set of animals was used to determine the optimal concentration of HNE for the study. […] The amount of HNE was reduced to 40 micrograms to maintain a maximal detrimental but survivable effect. The animals exposed to 40 micrograms of HNE were able to survive long enough to perform the complete study. All animals remaining in the complete study were exposed to 40 micrograms of HNE.
(§1) Target 2 (the Zeneca molecule) was given in a 70-fold molar excess relative to HNE. In the kinetic studies, Target 2 has 2 nM affinity. […] Accordingly, the Target C was given to the animals in a 100 fold molar excess relative to HNE in these studies.
Bronchio-Alveolar lavage (BAL) is performed by 1) anesthetizing the animals; 2) performing a tracheotomy on the animals and cutting open the chest and spreading the ribs to enable full lung expansion; 3) pressurizing 1 ml of PBS buffer solution into the lungs through the tracheotomy catheter; 4) sucking the solution out of the lungs; 5) centrifuging the recovered solution to separate the red blood cell fraction from the liquid fraction; and 6) weighing the red blood cell fraction.

Test [3] addresses T1, HNE (Homo sapiens, UniProt P08246).
T1 sequence (P08246 30-267): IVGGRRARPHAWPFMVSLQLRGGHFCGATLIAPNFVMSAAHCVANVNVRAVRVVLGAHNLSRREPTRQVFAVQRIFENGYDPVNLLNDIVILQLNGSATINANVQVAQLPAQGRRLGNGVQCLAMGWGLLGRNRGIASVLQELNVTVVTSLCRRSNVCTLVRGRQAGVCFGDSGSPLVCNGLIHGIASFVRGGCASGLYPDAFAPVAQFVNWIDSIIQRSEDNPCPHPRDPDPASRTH
Nature of the test: kinetic studies of HNE inhibition. Format: biochemical. How it is done:
as §1

Setting [4] is: HNE mixed with compound, four weeks, blind scoring.
[5] abbreviates: given with 40 micrograms HNE by intratracheal instillation, 2 hours, weight of BAL red blood cell fraction.

With Target C (FPIPLPYCWLCRALIKRIQAMIPKG), the “MLI (mean linear intercept between adjacent alveolar walls)” value in test [1] (HNE (40 micrograms) mixed with compound, intratracheal, four weeks, saline only 44.40, HNE only 51.45) is reported as 45.82 μm. Further, in test [1] (HNE + compound, compared to HNE only and saline only), the “effect on HNE induced emphysema by MLI” value is “strongly inhibited HNE induced emphysema”. Besides, in test [1] (setting [4]), the “effect on HNE induced emphysema, lung histology sections” value is given as “strongly inhibited HNE induced emphysema” and the “lung histology sections compared with animals receiving saline only” value is given as “could not be distinguished in blind scoring”. Also, in test [2] (setting [5]), the “Lung Blood Cell Level, Group mean” value came to 0.007 g; the “Lung Blood Cell Level, Mouse group 1” value is reported as 0 g; the “Lung Blood Cell Level, Mouse group 2” value turned out to be 0.007 g; the “Lung Blood Cell Level, Mouse group 3” value is listed as 0.014 g. In addition, in test [2] (given with the HNE, 2 hours, HNE alone 0.053 grams), the “average blood level in the lungs” value was 0.007 grams. Also, in test [2] (given with the HNE, versus HNE alone), the “reduction of the average blood level in the lungs” value is 87%. The “loss of potency as compared to Target 2” value in test [3] is listed as “loses approximately two orders of magnitude of potency”. Moreover, the Ki in test [3] (read-out: affinity for HNE) was about 200 nM.
